pIC50: −log10 of the molar value.
Legend:
[1] = system: Chinese hamster ovarian (CHO) cell line; assay: In vitro cytotoxicity MTT assay; type: cell-based; conditions: CHO vs PfNF54
Method: (§1) In vitro cytotoxicity was performed on the Chinese Hamster Ovarian cell line by measuring cellular growth and survival calorimetrically through the MTT assay.[29],[30] The formation of tetrazolium salt was used as a measure of chemosensitivity and growth. (Details of this assay is described in the Supporting Information.) page 19: et al, 1993). The test samples were prepared to a 10 mmol/L stock solution in 100% DMSO. Samples were tested as a suspension if not completely dissolved. Further dilutions to the desired starting concentration were freshly prepared in growth media on each occasion of the experiment. The standard antimalarial drugs chloroquine (CQ) and artesunate (Arts) were used as the reference drug in all experiments. A full dose-response was performed for all compounds […] value). Test samples were tested at a starting concentration of 6mmol/L, which was then serially diluted 2-fold in growth medium to generate the tested concentration range. The same dilution technique was used for all samples. CQ and Arts were tested from a starting concentration of 1μg/mL. The highest concentration of solvent to which the parasites were exposed was <0.1% and has no measurable effect on the parasite viability (data not shown). The assay plate was incubated at 37 °C for 72h in a sealed gas chamber under 3% O2 and 4% CO2 with the balance being N2. After 72h, the wells in the assay plate were gently resuspended, and 15μL from each well was transferred to a duplicate plate containing 100μL of Malstat reagent and 25μL of nitroblue tetrazolium solution in each well. Plates were left to develop for 20 minutes in the dark and then absorbance of each well was quantified using a spectrophotometer at 620nm wavelength. The remaining population of parasites at each concentration of the test compound was determined by comparing the absorbance of each well to the absorbance of a well containing the drug-free control. Survival was plotted against concentration and the IC50 values were obtained using a non-linear dose-response curve fitting analysis via the Dotmatics software platform.2 In vitro Cytotoxicity Assay In vitro cytotoxicity was performed on the Chinese Hamster Ovarian cell line by measuring […] diphenyltetrazolium bromide (MTT) assay.3,4 The formation of tetrazolium salt was used as a measure of chemosensitivity and growth. 2 mg/mL stock solutions of the test compounds were prepared in DMSO and stored at -20 °C until required. The stock solution was subsequently diluted with the assay medium to make up an initial concentration of 100 μg/mL. The initial 100 μg/mL solution is serially diluted 10- S19 page 20: fold to attain six assay concentrations of 100-0.001 μg/mL. […] was used as the reference compound in this assay. The highest concentration of DMSO, which was used as the negative control, had no measurable effect on cell viability. After 44 hours of exposure of the cells to the test compounds, a solution of MTT was added. This was followed by an additional 4 hours of incubation at 37 °C. The assay plates were centrifuged, medium removed, and DMSO was added to the crystals. The amount of formazan was ascertained by measuring the absorbance at 540 nm. GraphPad Prism software was then used to generate IC50 values through a non-linear dose-response curve analysis. β-Hematin Inhibition Assay 20 mM stock solutions of controls and test compounds were made in DMSO. A solution […] was added to every well in columns 1-11 of a 96-well plate. 140 μL of water and 40 μL of 305.5 μM NP-40 were added to column 12 to mediate the formation of beta-hematin. 20 μL of test compounds (20 mM) were added to column 12 and 100 μL of this solution serially diluted to column 2, leaving column 1 blank (0 μM of test compound). 178.8 μL aliquot of hematin stock was suspended in 20 ml of a 1 M acetate buffer at pH 4.9. 100 μL of this hematin suspension was then added into each well, and the plates were incubated for ±5 hrs at 37°C. […]

[2] = In vitro cytotoxicity MTT assay; type: cell-based, Chinese hamster; conditions: Chinese hamster, Chinese hamster ovarian (CHO) cells; MTT assay
Method: as §1

β-hematin = assay: β-Hematin inhibition assay (BHIA), cell-free NP-40 mediated; type: biochemical; conditions: mean of n = 3
Method: page 20: fold to attain six assay concentrations of 100-0.001 μg/mL. […] was used as the reference compound in this assay. The highest concentration of DMSO, which was used as the negative control, had no measurable effect on cell viability. After 44 hours of exposure of the cells to the test compounds, a solution of MTT was added. This was followed by an additional 4 hours of incubation at 37 °C. The assay plates were centrifuged, medium removed, and DMSO was added to the crystals. The amount of formazan was ascertained by measuring the absorbance at 540 nm. GraphPad Prism software was then used to generate IC50 values through a non-linear dose-response curve analysis. β-Hematin Inhibition Assay 20 mM stock solutions of controls and test compounds were made in DMSO. A solution […] was added to every well in columns 1-11 of a 96-well plate. 140 μL of water and 40 μL of 305.5 μM NP-40 were added to column 12 to mediate the formation of beta-hematin. 20 μL of test compounds (20 mM) were added to column 12 and 100 μL of this solution serially diluted to column 2, leaving column 1 blank (0 μM of test compound). 178.8 μL aliquot of hematin stock was suspended in 20 ml of a 1 M acetate buffer at pH 4.9. 100 μL of this hematin […] pH 7.4 and 50% pyridine) and 60 μL of acetone were added to all wells. The absorbances of plate wells were recorded at 405 nm on a SpectraMax plate reader. Sigmoidal dose-response curves with variable slopes were fitted to the absorbance data using GraphPad Prism to obtain the IC50 values for each compound. In vitro Microsomal Stability Assay The in vitro microsomal stability assay was performed in duplicate in a 96-well micro titre […] individually in human (pool of 50, mixed gender), rat (pool of 711, male Sprague Dawley) and mouse (pool of 1634, male CD1) liver microsomes (final protein concentration of 0.4 mg/mL; Xenotech, Kansas, USA), suspended in 0.1M phosphate buffer (pH 7.4). Incubations were S20

CCN(CCNc1cc2[nH]c(C3CC3)nc2cn1)Cc1ccc(Cl)cc1O [Compound 5, 5-Chloro-2-(((2-((2-cyclopropyl-1H-imidazo[4,5-c]pyridin-6-yl)amino)ethyl)(ethyl)amino)methyl)phenol]
SI (selectivity index) = IC50 CHO/IC50 PfNF54 [1]: 119.08 | IC50 at 44 h [2]: 46.4 µM | pIC50 (β-hematin): 4.80

CCN(CCNc1cc2[nH]c(C3(C)CC3)nc2cn1)Cc1ccc(Cl)cc1O [Compound 6, 5-Chloro-2-((ethyl(2-((2-(1-methylcyclopropyl)-1H-imidazo[4,5-c]pyridin-6-yl)amino)ethyl)amino)methyl)phenol]
SI (selectivity index) = IC50 CHO/IC50 PfNF54 [1]: >102.04 | IC50 at 44 h [2]: > 50 µM | pIC50 (β-hematin): 4.48

CCN(CCNc1cc2[nH]c(-c3ccc(C(F)(F)F)nc3)nc2cn1)Cc1ccc(Cl)cc1O [Compound 19, 5-Chloro-2-((ethyl(2-((2-(6-(trifluoromethyl)pyridin-3-yl)-1H-imidazo[4,5-c]pyridin-6-yl)amino)ethyl)amino)methyl)phenol]
SI (selectivity index) = IC50 CHO/IC50 PfNF54 [1]: >131.58 | IC50 at 44 h [2]: > 50 µM | pIC50 (β-hematin): 4.19

CCN(CCNc1cc2[nH]c(C3CCCC3)nc2cn1)Cc1ccc(Cl)cc1O [Compound 1, 5-Chloro-2-(((2-((2-cyclopentyl-1H-imidazo[4,5-c]pyridin-6-yl)amino)ethyl)(ethyl)amino)methyl)phenol]
SI (selectivity index) = IC50 CHO/IC50 PfNF54 [1]: 79.76 | IC50 at 44 h [2]: 27.1 µM | pIC50 (β-hematin): 4.74

CCN(CCNc1cc2[nH]c(-c3cccc(C(F)(F)F)c3)nc2cn1)Cc1ccc(Cl)cc1O [Compound 14, 5-Chloro-2-((ethyl(2-((2-(3-(trifluoromethyl)phenyl)-1H-imidazo[4,5-c]pyridin-6-yl)amino)ethyl)amino)methyl)phenol]
SI (selectivity index) = IC50 CHO/IC50 PfNF54 [1]: 466.25 | IC50 at 44 h [2]: 37.3 µM | pIC50 (β-hematin): 5.05

From publication PMC10111423, “Antimalarial Imidazopyridines Incorporating an Intramolecular Hydrogen Bonding Motif: Medicinal Chemistry and Mechanistic Studies” (ACS Infectious Diseases, 2023)
